Paper PMC12477080, “Polychlorinated biphenyls (PCBs) interact with drug metabolism in vivo” (Archives of Toxicology, 2025)

Tests used:
Human CYP1A2 = biological target: T1, Human CYP1A2 (Homo sapiens, UniProt P05177); assay: In vitro metabolism by CYP1A2 Supersomes; assay type: in vitro ADME
T1 construct: purchased; host or cells: insect cells
T1 sequence (P05177 2-516 limits assumed): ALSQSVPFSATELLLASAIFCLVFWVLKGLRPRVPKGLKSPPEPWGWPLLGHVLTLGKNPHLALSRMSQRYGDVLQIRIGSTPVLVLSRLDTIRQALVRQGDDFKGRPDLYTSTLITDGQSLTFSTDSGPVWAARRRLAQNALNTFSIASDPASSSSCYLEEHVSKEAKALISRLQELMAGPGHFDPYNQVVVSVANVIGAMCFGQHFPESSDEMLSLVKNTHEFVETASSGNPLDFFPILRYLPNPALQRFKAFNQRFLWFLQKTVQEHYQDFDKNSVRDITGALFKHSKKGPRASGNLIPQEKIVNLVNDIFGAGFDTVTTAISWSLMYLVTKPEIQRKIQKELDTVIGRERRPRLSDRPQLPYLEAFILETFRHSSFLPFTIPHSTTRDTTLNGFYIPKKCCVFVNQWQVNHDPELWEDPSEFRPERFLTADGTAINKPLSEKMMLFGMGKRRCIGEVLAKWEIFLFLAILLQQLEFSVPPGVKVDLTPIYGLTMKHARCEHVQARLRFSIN
Experimental: To investigate the metabolism of PCB118 by CYP1A2, incubation assays were conducted using CYP1A2 supersomes in a total reaction volume of 100 µL. Reaction mixtures were assembled on ice. […] Reactions were initiated by the addition of CYP1A2 supersomes.
To assess potential non-enzymatic transformations and confirm NADPH-dependent metabolism, control incubations were performed under the following conditions: buffer and enzyme only (no-substrate control), substrate, buffer, and NADPH without enzyme (no-enzyme control), and substrate, buffer, and enzyme without NADPH (no-NADPH control). Each experimental condition was conducted in triplicate, while control conditions were performed as single replicates.
The resulting supernatants (100 µL) were transferred to LC–MS vials, yielding samples with 80% methanol content for analysis. For the detection of hydroxylated PCB metabolites, reactions were stopped by adding 500 µL methanol, followed by the addition of 50 µL of an internal standard mix (10 ng/mL). Samples were vortexed for 1 min and centrifuged at 4,500 rpm for 10 min. The resulting supernatants were transferred to glass LC vials and evaporated under a nitrogen stream at 45 °C until approximately 50 µL remained. Samples were then reconstituted in 100 µL of 0.1 M ammonium acetate buffer (pH 5.3) before transfer to inserts for LC–MS analysis.
To determine whether PCB118 serves as a substrate for CYP1A2 and could act as a competitive inhibitor for other CYP1A2 substrates, we conducted in vitro metabolism experiments. […] In parallel, CYP1A2-mediated metabolism of PCB118 was assessed. […] The identity of 4-OH-CB107 was verified by comparison with an authentic reference standard, showing identical retention time and spectral characteristics (supplemental Fig. 1).

CYP1A2 mRNA = CYP1A2 mRNA expression in primary human hepatocytes (qRT-PCR); assay type: cell-based; details: three donors, 48 h exposure, PCB118 0.1–0.5 µM, omeprazole positive control
[1] = Stability of substrates and metabolites in quality control samples (benchtop, autosampler, freeze-thaw); assay type: physicochemical; details: for Autosampler stability (24 h) Av. Accuracy (%): 10° C for 24 hours in the autosampler; for 3x freeze-thaw Av. Accuracy (%): after three freeze-thaw cycles; for Benchtop stability (19 h) Ac. Accuracy (%): room temperature for 19 hours
Text: The method was validated for intra- and interday accuracy and precision, stability, and matrix effects. […] Validation details are provided in Supplementary Tables 5–7 and supplemental Fig. 3. Glucuronidase/sulfatase digests were used to isolate CYP-specific metabolic activities, reducing interference from polymorphic UDP-glucuronosyltransferase (UGT) and sulfotransferase isoforms.
Supplemental table 6: Stability of the substrates and metabolites. Quality control samples were left at room temperature for 19 hours (benchtop stability) and at 10° C for 24 hours in the autosampler (autosampler stability) or were measured after three freeze-thaw cycles. Stability samples were measured against a freshly prepared set of calibrators and quality control samples.

SMILES: Oc1c(Cl)cc(-c2ccc(Cl)c(Cl)c2)c(Cl)c1Cl [4-OH-CB107]
- NADPH dependency of metabolite formation from PCB118 (Human CYP1A2; control incubations lacking NADPH, substrate, or enzyme): strictly NADPH-dependent

SMILES: COc1ccc2[nH]c([S+]([O-])Cc3ncc(C)c(OC)c3C)nc2c1 (stereo not drawn) [omeprazol, omeprazole, reference compound]
- effect on CYP1A2 mRNA expression (CYP1A2 mRNA): strongly upregulated CYP1A2 expression
- Autosampler stability (24 h) Av. Accuracy (%) ([1]; QC conc. 0,5 ng/ml): 114,94%
- 3x freeze-thaw Av. Accuracy (%) ([1]; QC conc. 0,5 ng/ml): 112,03%
- Benchtop stability (19 h) Ac. Accuracy (%) ([1]; QC conc. 0,5 ng/ml): 117,42%
- Autosampler stability (24 h) Av. Accuracy (%) ([1]; QC conc. 0,25 ng/ml): 102,23%
- 3x freeze-thaw Av. Accuracy (%) ([1]; QC conc. 0,25 ng/ml): 112,67%
- Benchtop stability (19 h) Ac. Accuracy (%) ([1]; QC conc. 0,25 ng/ml): 91,86%
- Autosampler stability (24 h) Av. Accuracy (%) ([1]; QC conc. 60 ng/ml): 111,22%
- 3x freeze-thaw Av. Accuracy (%) ([1]; QC conc. 60 ng/ml): 106,21%
- Benchtop stability (19 h) Ac. Accuracy (%) ([1]; QC conc. 60 ng/ml): 112,32%
- Autosampler stability (24 h) Av. Accuracy (%) ([1]; QC conc. 150 ng/ml): 103,07%
- 3x freeze-thaw Av. Accuracy (%) ([1]; QC conc. 150 ng/ml): 105,55%
- Benchtop stability (19 h) Ac. Accuracy (%) ([1]; QC conc. 150 ng/ml): 104,38%
- Autosampler stability (24 h) Av. Accuracy (%) ([1]; QC conc. 1,5 ng/ml): 114,49%
- 3x freeze-thaw Av. Accuracy (%) ([1]; QC conc. 1,5 ng/ml): 111,42%
- Benchtop stability (19 h) Ac. Accuracy (%) ([1]; QC conc. 1,5 ng/ml): 115,14%

SMILES: CCOc1ccc(NC(C)=O)cc1 [phenacetin, reference compound]
- CYP1A2-mediated metabolism of the substrate (Human CYP1A2; 10 µM substrate, 50 pmol/mL CYP1A2 supersomes, 2 mM NADPH, 1 h (phenacetin), 1 and 4 h (PCB118)): efficiently catalyzed the O-de-ethylation of phenacetin to paracetamol
